The results in this text go back to the supplement of paper PMC12137928.

Each structure is given as a SMILES string. Where a name gives a salt, the structure may show the parent alone.

For this assay, the system named is HCT116. The note with it: 72 h. Summed up: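 Four-parameter Hill fits gave IC50 and maximal efficacy. The data were CellTiter-Glo luminescence readings in HCT116 cells, normalized so that vehicle was 0% and positive control was -100%, with pattern correction afterwards.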

As to `O=C(O)c1ccc(OCCCOc2ccc(C(=O)O)cc2)cc1` [1,3-Bis(4-carboxyphenoxy)propane], the IC50 cell viability is above 45.8 µM (ICRF193 0 nM) and above 45.8 µM (ICRF193 200 nM).

Consider `NC(=O)OCC(O)COc1ccc(Cl)cc1` (stereo unspecified) [Chlorphensin carbamate], for which the IC50 cell viability by setting is: (ICRF193 0 nM) above 45.8 µM; (ICRF193 200 nM) above 45.8 µM.

Consider `C[N+](C)(CCOc1ccccc1)Cc1cccs1` [Dimethyl(2-phenoxyethyl)-2-thenylammonium iodide], for which the IC50 cell viability is above 45.8 µM (ICRF193 0 nM) and above 45.8 µM (ICRF193 200 nM).

The molecule `CCOc1ccc(C(=O)OCCN(CC)CC)cc1` [Parethoxycaine] gave an IC50 cell viability (ICRF193 0 nM) above 45.8 µM and an IC50 cell viability (ICRF193 200 nM) above 45.8 µM.

Consider `COP(=S)(OC)SCN1C(=O)c2ccccc2C1=O` [Phosmet], for which the IC50 cell viability (ICRF193 0 nM) was above 45.8 µM and the IC50 cell viability (ICRF193 200 nM) was above 45.8 µM.

`Nc1ccc(C(=O)O)cc1` [4-Aminobenzoic acid]: the IC50 cell viability by setting is: (ICRF193 0 nM) above 45.8 µM; (ICRF193 200 nM) above 45.8 µM.

In the case of `N=C(N)c1ccc(/C=C/c2ccc(C(=N)N)cc2O)cc1` [Hydroxystilbamidine bis(methanesulfonate)], the IC50 cell viability runs as follows: (ICRF193 0 nM) above 45.8 µM; (ICRF193 200 nM) above 45.8 µM.

With `NCCCCCC(=O)O` [Aminocaproic acid], the IC50 cell viability reads like this: (ICRF193 0 nM) above 45.8 µM; (ICRF193 200 nM) above 45.8 µM.

Turning to `COc1ccc(C2CNC(=O)C2)cc1OC1CCCC1` (stereo unspecified) [Rolipram], the IC50 cell viability was above 45.8 µM (ICRF193 0 nM) and above 45.8 µM (ICRF193 200 nM).

Consider `CN(C)CCCOC1(Cc2ccccc2)CCCCCC1` [Bencyclane], for which the IC50 cell viability (ICRF193 0 nM) was above 45.8 µM and the IC50 cell viability (ICRF193 200 nM) was above 45.8 µM.

On to `CCOC(=O)COc1ccc2c(=O)cc(-c3ccccc3)oc2c1` [EFLOXATE], for which the IC50 cell viability was above 45.8 µM (ICRF193 0 nM) and above 45.8 µM (ICRF193 200 nM).

For the molecule `CCC(CN)=C(c1ccccc1)c1ccccc1` [Etifelmine hydrochloride], the IC50 cell viability is above 45.8 µM (ICRF193 0 nM) and above 45.8 µM (ICRF193 200 nM).

`C=C[C@]1(C)C[C@@H](OC(=O)CS[C@@H]2C[C@H]3CC[C@@H](C2)N3C)[C@]2(C)[C@H](C)CC[C@]3(CCC(=O)[C@H]32)[C@@H](C)[C@@H]1O` [Retapamulin] showed an IC50 cell viability (ICRF193 0 nM) above 45.8 µM and an IC50 cell viability (ICRF193 200 nM) above 45.8 µM.

Regarding `O=C(O)CCC(=O)c1ccc(-c2ccccc2)cc1` [Fenbufen], the IC50 cell viability is, setting by setting: (ICRF193 0 nM) above 45.8 µM; (ICRF193 200 nM) above 45.8 µM.

In the case of `CCCCC(=O)O[C@]1(C(=O)COC(C)=O)CC[C@H]2[C@@H]3CCC4=CC(=O)C=C[C@]4(C)[C@H]3[C@@H](O)C[C@@]21C` [PREDNISOLONE VALERATE ACETATE], the IC50 cell viability was above 45.8 µM (ICRF193 0 nM) and above 45.8 µM (ICRF193 200 nM).

`O=S(=O)(O)c1cc(O)ccc1O` [Dobesilate Calcium]: the IC50 cell viability is, setting by setting: (ICRF193 0 nM) above 45.8 µM; (ICRF193 200 nM) above 45.8 µM.

Turning to `CCC(=O)O[C@H]1[C@H](O[C@@H]2[C@@H](C)[C@H](O[C@H]3C[C@@](C)(OC)[C@@H](O)[C@H](C)O3)[C@@H](C)C(=O)O[C@H](CC)[C@@](C)(O)[C@H](O)[C@@H](C)C(=O)[C@H](C)C[C@@]2(C)O)O[C@H](C)C[C@@H]1N(C)C` [Erythromycin propionate], the IC50 cell viability runs as follows: (ICRF193 0 nM) above 45.8 µM; (ICRF193 200 nM) above 45.8 µM.

`O=C(O)CCC(=O)OC[C@@H](NC(=O)C(Cl)Cl)[C@H](O)c1ccc([N+](=O)[O-])cc1` [Chloramphenicol sodium succinate]: the IC50 cell viability (ICRF193 0 nM) was above 45.8 µM and the IC50 cell viability (ICRF193 200 nM) was above 45.8 µM.

As to `N=C(N)NCCC[C@@H](NC(=O)[C@@H]1CCCN1C(=O)[C@@H]1CSSCCC(=O)N[C@@H](Cc2ccc(O)cc2)C(=O)N[C@@H](Cc2ccccc2)C(=O)N[C@@H](CCC(N)=O)C(=O)N[C@@H](CC(N)=O)C(=O)N1)C(=O)NCC(N)=O` [Desmopressin (Acetate)], the IC50 cell viability by setting is: (ICRF193 0 nM) above 45.8 µM; (ICRF193 200 nM) above 45.8 µM.

As for `O=C(O)COc1nn(Cc2ccccc2)c2ccccc12` [Bendazac sodium], the IC50 cell viability runs as follows: (ICRF193 0 nM) above 45.8 µM; (ICRF193 200 nM) above 45.8 µM.

Consider `NCCc1ccc(O)c(O)c1` [Dopamine hydrochloride], for which the IC50 cell viability was above 45.8 µM (ICRF193 0 nM) and above 45.8 µM (ICRF193 200 nM).

For the molecule `COc1ccc(/C=C/C(=O)OCCC(C)C)cc1` [Amiloxate], the IC50 cell viability (ICRF193 0 nM) is above 45.8 µM and the IC50 cell viability (ICRF193 200 nM) was above 45.8 µM.

In the case of `CCN(CC)CCNC(=O)c1cc(S(C)(=O)=O)ccc1OC` [Tiapride hydrochloride], the IC50 cell viability is above 45.8 µM (ICRF193 0 nM) and above 45.8 µM (ICRF193 200 nM).

In the case of `C[C@H](O)[C@H](O)[C@H]1CNc2nc(N)[nH]c(=O)c2N1` [(6R)-5,6,7,8-Tetrahydrobiopterin dihydrochloride], the IC50 cell viability by setting is: (ICRF193 0 nM) above 45.8 µM; (ICRF193 200 nM) above 45.8 µM.

For `N=C(N)Nc1ccc(C(=O)Oc2ccc3cc(C(=N)N)ccc3c2)cc1` [Nafamostat mesilate], the IC50 cell viability was above 45.8 µM (ICRF193 0 nM) and above 45.8 µM (ICRF193 200 nM).

Consider `CC(COc1ccccc1)NC(C)C(O)c1ccc(O)cc1` (stereo unspecified) [Isoxsuprine hydrochloride], for which the IC50 cell viability reads like this: (ICRF193 0 nM) above 45.8 µM; (ICRF193 200 nM) above 45.8 µM.

Consider `COc1ccc(CNc2nc(N3CCC[C@H]3CO)ncc2C(=O)NCc2ncccn2)cc1Cl` [Avanafil], for which the IC50 cell viability is above 45.8 µM (ICRF193 0 nM) and above 45.8 µM (ICRF193 200 nM).

In the case of `Nc1ccc(S(N)(=O)=O)cc1` [Sulfanilamide], the IC50 cell viability reads like this: (ICRF193 0 nM) above 45.8 µM; (ICRF193 200 nM) above 45.8 µM.

As for `CC1CCCC(C)N1CCCC(O)(c1ccccc1)c1ccccn1` (stereo unspecified) [Pirmenol], the IC50 cell viability runs as follows: (ICRF193 0 nM) above 45.8 µM; (ICRF193 200 nM) above 45.8 µM.

Turning to `CCCCOc1ccc(OCCCN2CCOCC2)cc1` [Pramoxine hydrochloride], the IC50 cell viability is, setting by setting: (ICRF193 0 nM) above 45.8 µM; (ICRF193 200 nM) above 45.8 µM.

Regarding `COc1cc(/C=C/C(=O)N2CCN(CC(=O)N3CCCC3)CC2)cc(OC)c1OC` [Cinepazide Maleate], the IC50 cell viability is above 45.8 µM (ICRF193 0 nM) and above 45.8 µM (ICRF193 200 nM).

As for `NCCC(=O)[N-][C@@H](Cc1c[nH]cn1)C(=O)[O-].[Zn+2]` [Polaprezinc], the IC50 cell viability by setting is: (ICRF193 0 nM) above 45.8 µM; (ICRF193 200 nM) above 45.8 µM.

With `Nc1ccn([C@@H]2CO[C@H](CO)O2)c(=O)n1` [Troxacitabine], the IC50 cell viability (ICRF193 0 nM) is above 45.8 µM and the IC50 cell viability (ICRF193 200 nM) was above 45.8 µM.

Regarding `CC(C(=O)O)c1ccc(C(=O)c2ccccc2)s1` (stereo unspecified) [Tiaprofenic acid], the IC50 cell viability (ICRF193 0 nM) was above 45.8 µM and the IC50 cell viability (ICRF193 200 nM) is above 45.8 µM.

Regarding `C[C@H]1CN(C[C@H](Cc2ccccc2)C(=O)NCC(=O)O)CC[C@@]1(C)c1cccc(O)c1` [Alvimopan], the IC50 cell viability is above 45.8 µM (ICRF193 0 nM) and above 45.8 µM (ICRF193 200 nM).

For the molecule `CCOC(CN1CCN(CC(C)C(=O)c2ccccc2)CC1)c1ccccc1` (stereo unspecified) [Eprazinone dihydrochloride], the IC50 cell viability was above 45.8 µM (ICRF193 0 nM) and above 45.8 µM (ICRF193 200 nM).

`Oc1ccc(C2CNCCc3c2cc(O)c(O)c3Cl)cc1` (stereo unspecified) [Fenoldopam]: the IC50 cell viability runs as follows: (ICRF193 0 nM) above 45.8 µM; (ICRF193 200 nM) above 45.8 µM.

For the molecule `C1CCN2C[C@@H]3C[C@@H](CN4CCCC[C@@H]34)[C@H]2C1` [Sparteine], the IC50 cell viability was above 45.8 µM (ICRF193 0 nM) and above 45.8 µM (ICRF193 200 nM).

`O=C(OCCO)c1ccccc1O` [BETA-HYDROXYETHYL SALICYLATE] showed an IC50 cell viability (ICRF193 0 nM) above 45.8 µM and an IC50 cell viability (ICRF193 200 nM) above 45.8 µM.

`CC(C)=CCN1CC[C@]2(C)c3cc(O)ccc3C[C@H]1[C@H]2C` [(+)-Pentazocine succinate] returned an IC50 cell viability (ICRF193 0 nM) above 45.8 µM and an IC50 cell viability (ICRF193 200 nM) above 45.8 µM.

Regarding `CN(CCCCCCCCCCN(C)C(=O)Oc1cccc([N+](C)(C)C)c1)C(=O)Oc1cccc([N+](C)(C)C)c1` [Demecarium bromide], the IC50 cell viability runs as follows: (ICRF193 0 nM) above 45.8 µM; (ICRF193 200 nM) above 45.8 µM.

Turning to `CCC(NC(C)C)C(O)c1ccc(O)c(O)c1` (stereo unspecified) [ISOETHARINE MESYLATE], the IC50 cell viability by setting is: (ICRF193 0 nM) above 45.8 µM; (ICRF193 200 nM) above 45.8 µM.

Regarding `CC(CNC1CCCCC1)OC(=O)c1ccccc1` (stereo unspecified) [Hexylcaine hydrochloride], the IC50 cell viability runs as follows: (ICRF193 0 nM) above 45.8 µM; (ICRF193 200 nM) above 45.8 µM.

For `Cc1ccc(Sc2ccccc2N2CCNCC2)c(C)c1` [Brintellix], the IC50 cell viability was above 45.8 µM (ICRF193 0 nM) and above 45.8 µM (ICRF193 200 nM).

`CC(N)Cc1ccc(O)cc1` (stereo unspecified) [HYDROXYAMPHETAMINE HYDROBROMIDE]: the IC50 cell viability reads like this: (ICRF193 0 nM) above 45.8 µM; (ICRF193 200 nM) above 45.8 µM.

With `CC(C)(C)NCC(O)COc1cccc2c1CCC(=O)N2` (stereo unspecified) [Carteolol hydrochloride], the IC50 cell viability reads like this: (ICRF193 0 nM) above 45.8 µM; (ICRF193 200 nM) above 45.8 µM.

For `CN1CCC[C@@H]1c1cccnc1` [D-Nicotine], the IC50 cell viability is above 45.8 µM (ICRF193 0 nM) and above 45.8 µM (ICRF193 200 nM).

Turning to `CN1[C@@H]2CC[C@H]1C[C@@H](OC(=O)c1c[nH]c3ccccc13)C2` [Tropisetron], the IC50 cell viability by setting is: (ICRF193 0 nM) above 45.8 µM; (ICRF193 200 nM) above 45.8 µM.

On to `O=C/C=C/c1ccccc1` [(2E)-3-Phenylprop-2-enal], for which the IC50 cell viability is, setting by setting: (ICRF193 0 nM) above 45.8 µM; (ICRF193 200 nM) above 45.8 µM.

Turning to `CNCC(=O)OCc1cccnc1N(C)C(=O)OC(C)[n+]1cnn(C[C@](O)(c2cc(F)ccc2F)[C@@H](C)c2nc(-c3ccc(C#N)cc3)cs2)c1` (stereo partly specified) [ISAVUCONAZONIUM SULFATE], the IC50 cell viability by setting is: (ICRF193 0 nM) above 45.8 µM; (ICRF193 200 nM) above 45.8 µM.

In turn, `CCC(=O)C(CCN(C)C)(c1ccccc1)c1ccccc1` [Normethadone] registered an IC50 cell viability (ICRF193 0 nM) above 45.8 µM and an IC50 cell viability (ICRF193 200 nM) above 45.8 µM.

As to `O=C(O)CCCc1ccc(N(CCCl)CCCl)cc1` [Chlorambucil], the IC50 cell viability is above 45.8 µM (ICRF193 0 nM) and above 45.8 µM (ICRF193 200 nM).

Turning to `CCCCCCC(=O)O[C@H]1CC[C@H]2[C@@H]3CCc4cc(O)ccc4[C@H]3CC[C@]12C` [Estradiol enanthate], the IC50 cell viability was above 45.8 µM (ICRF193 0 nM) and above 45.8 µM (ICRF193 200 nM).
